Experiments:
[1] = system: breast cancer cells (MDA MB 231, SKBr3); assay: mode of cell death: Annexin V binding, DNA fragmentation; format: cell-based, human
Description: (§1) 1. Induction of the loss of the mitochondrial transmembrane potential (MTP). […] 2. Induction of reactive oxygen species (ROS). […] 3. […] 4. Compounds were tested for induction of DNA damage using test known as comet assay that allows detection of DNA damage in individual cells. […] 6. The mode of cell death (i.e., apoptosis versus necrosis) was studied using several criteria: conversion of cells to positivity for binding Annexin V; DNA fragmentation (characteristic of apoptotic death) and decrease in cellular ATP levels (commonly observed during necrotic death) (FIG. 5). 1. Induction of the loss of the mitochondrial transmembrane potential (MTP). […] 2. Induction of reactive oxygen species (ROS). […] 3. […] 4. Compounds were tested for induction of DNA damage using test known as comet assay that allows detection of DNA damage in individual cells. […] 6. The mode of cell death (i.e., apoptosis versus necrosis) was studied using several criteria: conversion of cells to positivity for binding Annexin V; DNA fragmentation (characteristic of apoptotic death) and decrease in cellular ATP levels (commonly observed during necrotic death) (FIG. 5).

[2] = system: breast cancer cells (MDA MB 231, SKBr3); assay: induction of ROS, CM-H2DCFDA staining; format: cell-based, human
Description: as §1
DCFDA is nonfluorescent in reduced form and is readily membrane-permeant. Cellular esterases cleave its acetate groups. The thiol-reactive chloromethyl group then binds to cellular thiols, trapping the dye inside the cell, where oxidation converts it to the fluorescent form. […] It is relatively insensitive to oxidation by superoxide.
FIG. 1. […] The indicated compounds were added to cells at 20 μg/ml growth medium, followed by addition of 10 μM CM-H2 DCFDA. Inhibitor of mitochondrial respiration, NaN3, was added at 10 mM. After 30 minute incubation, cells were washed in PBS and analyzed on FACScan for fluorescence.

[3] = system: breast cancer cells (MDA MB 231, SKBr3); assay: DNA damage, comet assay; format: cell-based, human
Description: as §1

[4] = system: breast cancer cells (MDA MB 231, SKBr3); assay: mitochondrially derived superoxide, MitoSOX staining; format: cell-based, human
Description: as §1

[5] = system: breast cancer cells (MDA MB 231, SKBr3); assay: cellular ATP levels, ATP bioluminescence; format: cell-based, human
Description: as §1

[6] = system: two different breast cancer cell lines; assay: induction of ROS (fold), compounds alone and in combination; format: cell-based; conditions: Table 11
Description: In order to better understand the combined activities of the isolated species, several flavanones and flavones isolated from Scutellaria barbata were tested individually and in combination. The flavanones and flavones tested are depicted in FIG. 8. These compounds 1-8 from were tested for induction of ROS, DNA damage and cell death, as described in Example 2.
The results set forth in Tables 10 and 11 were confirmed by performing the experiments in two different breast cancer cell lines.

SMILES | cell death and its mode [1] | induction of cellular ROS [2] | induction of DNA damage [3] | generation of mitochondrial superoxide [4] | cellular ATP levels [5] | Induction of ROS (fold) [6] [fold]
O=c1cc(-c2ccc(O)cc2)oc2cc(O)c(O)c(O)c12 [Scutellarein] | cell death that has hallmarks of programmed necrosis | induce ROS, but of extra-mitochondrial origin | induce DNA damage | – | – | –
O=C1CC(c2ccc(O)cc2)Oc2cc(O)c(O)c(O)c21 (stereo not drawn) [Carthamidin] | – | induce ROS, but of extra-mitochondrial origin | induce DNA damage | – | – | –
O=c1cc(-c2ccc(O)cc2)oc2c(O)c(O)cc(O)c12 [Isoscutellarein] | cell death that has hallmarks of programmed necrosis | induce ROS, but of extra-mitochondrial origin | induce DNA damage | – | – | –
O=C1CC(c2ccc(O)cc2)Oc2c(O)c(O)cc(O)c21 (stereo not drawn) [Isocarthamidin] | – | induce ROS, but of extra-mitochondrial origin | induce DNA damage | – | – | –
O=c1cc(-c2ccc(O)cc2)oc2cc(O)cc(O)c12 [Apigenin] | induce significant cell death characterized as apoptotic | – | do not induce DNA damage | induce generation of superoxide whose origin is identified as mitochondrial | slight but consistent increase in ATP levels | –
O=c1cc(-c2ccc(O)cc2)oc2cc(O)cc(O)c12 [cmpd 4] | – | – | – | – | – | 0.6

From patent US20100069481A1, “METHODS AND COMPOSITIONS FOR THE TREATMENT OF CANCER” (Bionovo, Inc., priority 2008, published 2010)
